Experimental data: patent publication US6875778B2, “Alkylene-tethered bis-nitroiminoimidazolidines, process for preparing the same, and insecticides containing the same” (Gifu University, priority 2002, dated 2005)

Tested on: common cockroach
Test: insecticidal activity against the common cockroach (abdominal injection, minimum lethal dose)
Format: in vivo
Conditions: MLD = minimum lethal dose (moles/insect) at which two of three male adult common cockroaches became paralyzed or died; 1 to 10 μl of 1% by weight methanol solution injected into abdomen
Procedure: The insecticidal activity against the common cockroach was tested for the compounds of Examples 1 to 14 and the compound of Comparative Example 1. Methanol solutions containing 1% by weight of each compound were prepared. 1 to 10 μl of the methanol solution were injected into the abdomens of 3 male adult common cockroaches. The concentration at which two of the three adult insects became paralyzed or died, namely the minimum lethal dose (MLD: moles/insect) was then investigated.

Structure (SMILES) | log (1/MLD)
O=[N+]([O-])N=C1N(CCN2CCN(Cc3ccc(Cl)nc3)C2=N[N+](=O)[O-])CCN1Cc1ccc(Cl)nc1 [Comp. Exp. 1, 1,2-bis[(6-chloronicotinyl)-2-nitroiminoimidazolidin-3-yl]ethane, reference compound] | 7.38
O=[N+]([O-])N=C1N(CCCN2CCN(Cc3ccc(Cl)nc3)C2=N[N+](=O)[O-])CCN1Cc1ccc(Cl)nc1 [Exp. 1, 1,3-bis[(6-chloronicotinyl)-2-nitroiminoimidazolidin-3-yl]propane] | 8.31
O=[N+]([O-])N=C1N(CCCCN2CCN(Cc3ccc(Cl)nc3)C2=N[N+](=O)[O-])CCN1Cc1ccc(Cl)nc1 [Exp. 2, 1,4-bis[(6-chloronicotinyl)-2-nitroiminoimidazolidin-3-yl]butane] | 7.97
O=[N+]([O-])N=C1N(CCCCCCN2CCN(Cc3ccc(Cl)nc3)C2=N[N+](=O)[O-])CCN1Cc1ccc(Cl)nc1 [Exp. 4, 1,6-bis[(6-chloronicotinyl)-2-nitroiminoimidazolidin-3-yl]hexane] | 8.65
O=[N+]([O-])N=C1N(CCCCCCCN2CCN(Cc3ccc(Cl)nc3)C2=N[N+](=O)[O-])CCN1Cc1ccc(Cl)nc1 [Exp. 5, 1,7-bis[(6-chloronicotinyl)-2-nitroiminoimidazolidin-3-yl]heptane] | 8.55
O=[N+]([O-])N=C1N(CCCCCCCCN2CCN(Cc3ccc(Cl)nc3)C2=N[N+](=O)[O-])CCN1Cc1ccc(Cl)nc1 [Exp. 6, 1,8-bis[(6-chloronicotinyl)-2-nitroiminoimidazolidin-3-yl]octane] | 8.35
O=[N+]([O-])N=C1N(CCCCCCCCCN2CCN(Cc3ccc(Cl)nc3)C2=N[N+](=O)[O-])CCN1Cc1ccc(Cl)nc1 [Exp. 7, 1,9-bis[(6-chloronicotinyl)-2-nitroiminoimidazolidin-3-yl]nonane] | 8.56
O=[N+]([O-])N=C1N(CCCCCCCCCCN2CCN(Cc3ccc(Cl)nc3)C2=N[N+](=O)[O-])CCN1Cc1ccc(Cl)nc1 [Exp. 8, 1,10-bis[(6-chloronicotinyl)-2-nitroiminoimidazolidin-3-yl]decane] | 8.43
O=[N+]([O-])N=C1N(Cc2ccc(Cl)nc2)CCN1Cc1cccc(CN2CCN(Cc3ccc(Cl)nc3)C2=N[N+](=O)[O-])c1 [Exp. 12, 1,3-bis[(6-chloronicotinyl)-2-nitroiminoimidazolidin-3-yl]methylbenzene] | 7.71
O=[N+]([O-])N=C1N(Cc2ccc(CN3CCN(Cc4ccc(Cl)nc4)C3=N[N+](=O)[O-])cc2)CCN1Cc1ccc(Cl)nc1 [Exp. 13, 1,4-bis[(6-chloronicotinyl)-2-nitroiminoimidazolidin-3-yl]methylbenzene] | 7.57
O=[N+]([O-])N=C1N(CCCCCCN2CCN(Cc3cnc(Cl)s3)C2=N[N+](=O)[O-])CCN1Cc1cnc(Cl)s1 [Exp. 14, 1,6-bis[1-(2-chloro-5-thiazolylmethyl)-2-nitroiminoimidazolidin-3-yl]hexane] | 7.56
